Test results reported in ChEMBL document CHEMBL1150451, “Synthetic studies on the furan ring of wortmannin” (Bioorg Med Chem Lett, 1995).

Test: Inhibition of Phosphatidylinositol 3-kinase

Point of comparison: `CCN(/C=C1/C(=O)O[C@H](COC)[C@@]2(C)C1=C(O)C(=O)C1=C2[C@H](OC(C)=O)C[C@]2(C)C(=O)CC[C@@H]12)CC`, IC50 80 nM. Against it:
- C/N=C/C1=C(O)O[C@H](COC)[C@@]2(C)C1=C(O)C(=O)C1=C2[C@H](OC(C)=O)C[C@]2(C)C(=O)CC[C@@H]12 — higher, > 500 nM
- COC[C@H]1OC(O)=C(C=N)C2=C(O)C(=O)C3=C([C@H](OC(C)=O)C[C@]4(C)C(=O)CC[C@@H]34)[C@]21C — higher, > 500 nM
- COC[C@H]1OC(=O)C(=C(C)C)C2=C(O)C(=O)C3=C([C@H](OC(C)=O)C[C@]4(C)C(=O)CC[C@@H]34)[C@]21C — higher, > 500 nM
- CC/N=C/C1=C(O)O[C@H](COC)[C@@]2(C)C1=C(O)C(=O)C1=C2[C@H](OC(C)=O)C[C@]2(C)C(=O)CC[C@@H]12 — higher, > 500 nM
- CCC/N=C\C1=C(O)O[C@H](COC)[C@@]2(C)C1=C(O)C(=O)C1=C2[C@H](OC(C)=O)C[C@]2(C)C(=O)CC[C@@H]12 — higher, > 500 nM
- COC[C@H]1OC(=O)C2=CCOC3=C2[C@@]1(C)C1=C(C3=O)[C@@H]2CCC(=O)[C@@]2(C)C[C@H]1OC(C)=O — 3.4-fold higher, 271 nM
- COC[C@H]1OC(=O)C23CC2COC2=C3[C@@]1(C)C1=C(C2=O)[C@@H]2CCC(=O)[C@@]2(C)C[C@H]1OC(C)=O (some centres undefined) — higher, > 500 nM
- COC[C@H]1OC(=O)c2coc3c2[C@@]1(C)C1=C(C3=O)[C@@H]2CCC(=O)[C@@]2(C)C[C@H]1OC(C)=O [WORTMANNIN] — 19-fold lower, 4.2 nM
